Biological target: T1, Human ENaC δ, β and γ subunit (Homo sapiens, UniProt P51168+P51170+P51172)
T1 construct: expressed in transfected cells; host or cells: Xenopus laevis (African clawed frog) oocytes injected with cRNA
T1 sequence (P51172 1-802): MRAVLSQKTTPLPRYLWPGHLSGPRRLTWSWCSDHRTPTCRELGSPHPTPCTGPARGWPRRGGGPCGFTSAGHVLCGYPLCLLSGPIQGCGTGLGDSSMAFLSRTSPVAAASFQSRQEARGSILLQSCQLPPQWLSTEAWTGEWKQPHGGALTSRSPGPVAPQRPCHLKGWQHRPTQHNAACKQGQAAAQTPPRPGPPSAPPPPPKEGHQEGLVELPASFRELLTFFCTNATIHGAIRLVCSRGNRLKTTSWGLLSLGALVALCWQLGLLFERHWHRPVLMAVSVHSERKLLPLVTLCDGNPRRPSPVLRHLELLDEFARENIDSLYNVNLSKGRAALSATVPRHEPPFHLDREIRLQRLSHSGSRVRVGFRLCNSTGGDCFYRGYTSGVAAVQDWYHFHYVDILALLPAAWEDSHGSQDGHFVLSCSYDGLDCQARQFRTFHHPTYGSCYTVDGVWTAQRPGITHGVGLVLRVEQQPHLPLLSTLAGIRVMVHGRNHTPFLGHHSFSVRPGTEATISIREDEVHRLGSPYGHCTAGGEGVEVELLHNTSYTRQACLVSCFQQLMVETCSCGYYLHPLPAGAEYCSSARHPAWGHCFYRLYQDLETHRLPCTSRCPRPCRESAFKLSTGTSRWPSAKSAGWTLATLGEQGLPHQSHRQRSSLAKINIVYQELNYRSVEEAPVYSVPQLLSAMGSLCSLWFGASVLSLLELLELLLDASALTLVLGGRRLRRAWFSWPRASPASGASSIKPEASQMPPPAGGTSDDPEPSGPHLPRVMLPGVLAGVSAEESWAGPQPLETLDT
T1 sequence (P51168 1-640): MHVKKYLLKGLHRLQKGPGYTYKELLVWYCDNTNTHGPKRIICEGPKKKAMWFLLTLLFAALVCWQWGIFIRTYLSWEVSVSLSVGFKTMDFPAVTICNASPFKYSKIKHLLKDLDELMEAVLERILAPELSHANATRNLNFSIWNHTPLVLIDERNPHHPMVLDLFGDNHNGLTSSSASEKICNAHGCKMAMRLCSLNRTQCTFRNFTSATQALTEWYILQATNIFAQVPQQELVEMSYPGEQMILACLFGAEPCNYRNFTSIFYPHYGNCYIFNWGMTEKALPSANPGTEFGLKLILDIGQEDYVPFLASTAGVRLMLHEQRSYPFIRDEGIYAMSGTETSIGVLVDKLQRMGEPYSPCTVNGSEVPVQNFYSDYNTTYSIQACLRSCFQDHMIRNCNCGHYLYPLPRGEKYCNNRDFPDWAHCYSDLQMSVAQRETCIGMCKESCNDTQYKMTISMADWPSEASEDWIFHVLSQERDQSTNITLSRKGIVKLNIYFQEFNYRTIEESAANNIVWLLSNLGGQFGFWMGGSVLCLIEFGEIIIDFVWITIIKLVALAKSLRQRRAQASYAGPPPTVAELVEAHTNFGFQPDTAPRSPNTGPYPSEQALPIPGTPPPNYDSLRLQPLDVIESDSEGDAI
T1 sequence (P51170 1-649): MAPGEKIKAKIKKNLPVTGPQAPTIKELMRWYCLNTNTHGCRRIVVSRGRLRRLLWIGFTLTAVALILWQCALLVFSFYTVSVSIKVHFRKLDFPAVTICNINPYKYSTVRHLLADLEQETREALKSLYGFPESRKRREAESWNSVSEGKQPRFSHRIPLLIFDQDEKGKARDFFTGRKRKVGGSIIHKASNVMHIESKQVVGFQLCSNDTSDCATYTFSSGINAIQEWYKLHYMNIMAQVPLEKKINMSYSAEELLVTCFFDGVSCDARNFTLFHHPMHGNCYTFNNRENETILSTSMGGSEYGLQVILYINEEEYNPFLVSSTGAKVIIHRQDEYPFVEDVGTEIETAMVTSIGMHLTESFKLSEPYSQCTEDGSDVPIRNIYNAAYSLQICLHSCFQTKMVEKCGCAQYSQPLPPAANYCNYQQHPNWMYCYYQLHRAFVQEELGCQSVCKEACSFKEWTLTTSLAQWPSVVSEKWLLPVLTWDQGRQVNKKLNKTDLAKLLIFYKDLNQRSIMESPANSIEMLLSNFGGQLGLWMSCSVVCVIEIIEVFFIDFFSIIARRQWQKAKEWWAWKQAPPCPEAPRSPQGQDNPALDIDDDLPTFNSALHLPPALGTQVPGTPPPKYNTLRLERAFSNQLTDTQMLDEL
Assay: Measurement of ENaC activation potency (MED) in ENaC-expressing oocyte, Two Electrode Voltage Clamp
Assay type: cell-based
Details: minimum effective dose at which current started to increase; ENaC-expressing African clawed frog oocyte; smaller MED = higher ENaC activation potency
Method: ENaC activation current value, namely, the inward current in ENaC-expressing oocyte was measured as follows.
According to the method described in Motonao Nakamura, Takao Shimizu: Experiment of African clawed frog oocyte, Experimental Medicine Vol. 11, No. 3, 224-232 (1993), oocyte was collected from African clawed frog, […], and the current value was measured by a Two Electrode Voltage Clamp technique. In the present invention, ND96 (96 mM NaCl, 2 mM KCl, 1 mM MgCl2, 5 mM Hepes, 1.8 mM CaCl2, pH 7.6) was used instead of MBS buffer in the above-mentioned document. Injector NANOLITER 2000 manufactured by World Precision Instruments was used for microinjection, OpusXpress 6000A manufactured by Molecular Devices was used for current value measurement by a Two Electrode Voltage Clamp technique, and Clampfit 10.2 software manufactured by Molecular Devices was used for data analysis.
Human ENaC δ, β and γ subunit genes shown by SEQ ID NOs: 1, 2 and 3, respectively, in the Sequence Listing were each cloned into a plasmid vector, and used as a template DNA for cRNA synthesis. cRNA was synthesized using MEGAscript kit manufactured by Ambion and according to the method of the manual of the manufacturer.
A mixture of the same amount of ENaC […] cRNA (0.4 to 0.8 μg/μL), and β and γ subunits cRNA (0.4 μg/μL) was injected into the oocyte of African clawed frog at […] per oocyte, and the oocyte was cultured for 16 hr-72 hr. Thereafter, the oocyte was set on a measuring apparatus OpusXpress 6000A, the electrodes were inserted into the oocyte, the voltage was clamped at a level lower by −30 mV than the resting membrane potential by a Two Electrode Voltage Clamp technique, and the current value was measured.
To measure the ENaC activation potency, oocyte was stimulated with each test compound, and the minimum effective dose (hereinafter to be abbreviated as MED) of the compound at the time point when the electric current started to increase was measured. In this case, whichever smaller value of the minimum effective dose of the stimulation compound that increased the current value by not less than 10%, and the minimum effective concentration of the compound that increased, by not less than 25%, the electric current increase value due to the stimulation by 5 μM capsazepine (CAS NO.: 138977-28-3), as compared to the current value before addition of the compound and without stimulation, was taken as MED. A smaller MED means higher ENaC activation potency.
Each test compound was directly dissolved in ND96, or first dissolved in dimethyl sulfoxide (DMSO) to 100 mM, and then prepared by diluting the solution with ND96 to a concentration used for the evaluation. The concentration of the test compound in ND96 was prepared to various concentrations within the range of 0.1 nM to 300 μm.
ND96 as a perfusion fluid was flown at a rate of 0.5 mL/min through the measuring apparatus OpusXpress 6000A on which ENaC-expressing oocyte was set, the perfusion fluid was temporarily stopped every 3 minutes to add a test compound solution (0.25 mL) dissolved in ND96 at a rate of 0.5 mL/min. In this way, the test compound was contacted with ENaC-expressing oocyte, and whether ENaC is activated by the compound was examined by measuring the current value. After addition of the test compound, feeding of the perfusion fluid was resumed to wash away the compound to be ready for the next addition of the compound.
The compound was added successively from a low concentration to a high concentration to stimulate ENaC-expressing oocyte. The concentrations actually added was, for example, 1 nM, 3 nM, 10 nM, 30 nM, 100 nM, 300 nM; 1 μM, 3 μM, 10 μm, 30 μm, 100 μm, 300 μm; 1.2 μM, 6 μM, 30 μm, 150 μm of one test compound. The compound was added from low concentrations to high concentrations at 3 min intervals. […]

`Oc1ccc(CNC(=S)NCCc2ccc(Cl)cc2)cc1O` [Example 1] was tested, and the MED was 1 µM.
In the case of `Oc1cc2c(cc1O)CN(C(=S)NCCc1ccc(Cl)cc1)CC2` [Example 2], the MED was 3 µM.
Compound `COc1cc2c(cc1OC)CN(C(=S)NCCc1ccc(Cl)cc1)CC2` [Example 3] has an MED of 30 µM.
`COc1cc2c(cc1OC)CN(C(=S)NCCc1ccccc1)CC2` [Example 4] showed an MED of 30 µM.
For `CN(Cc1ccc(O)c(O)c1)C(=S)NCCc1ccc(Cl)cc1` [Example 5], the MED was 1 µM.
`S=C(NCCc1ccc(Cl)cc1)NCCc1c[nH]c2ccccc12` [Example 6] was tested, and the MED was 30 µM.
`S=C(NCCc1ccccc1)NCCc1c[nH]c2ccccc12` [Example 7] was tested, and the MED was 5 µM.
In the case of `S=C(NCCc1ccccc1)NCc1ccccc1` [Example 8], the MED was 1 µM.
Compound `S=C(NCCc1ccccc1)Nc1ccccc1` [Example 9] has an MED of 3 µM.
For `C[C@H](NC(=S)NCCc1ccccc1)c1ccccc1` [Example 12], the MED was 10 µM.
`S=C(NCCc1ccccc1)NCCc1ccccc1` [Example 13] was tested, and the MED was 10 µM.
Work on `S=C(NCCc1ccccn1)NCc1ccccc1` [Example 14] yielded an MED of 3 µM.
For `OCCNC(=S)NCc1ccccc1` [Example 15], the MED was 30 µM.
In the case of `COc1ccc(CCNC(=S)NCc2ccccc2)cc1` [Example 16], the MED was 3 µM.
`Oc1ccc(CCNC(=S)NCc2ccccc2)cc1` [Example 17] showed an MED of 3 µM.
`S=C(NCCCc1ccccc1)NCc1ccccc1` [Example 18] was tested, and the MED was 10 µM.
Compound `S=C(NCCc1ccccc1)NCc1cccc2ccccc12` [Example 20] has an MED of 3 µM.
For `S=C(NCCc1ccccc1)NCc1ccco1` [Example 21], the MED was 1 µM.
Compound `S=C(NCCc1ccccc1)N(Cc1ccccc1)Cc1ccccc1` [Example 22] has an MED of 30 µM.
Compound `O=C(O)c1ccc(CNC(=S)NCCc2ccccc2)cc1` [Example 23] has an MED of 10 µM.
`C[C@H](NC(=S)N[C@H](C)c1ccccc1)c1ccccc1` [Example 24] showed an MED of 3.3 µM.
`C[C@@H](NC(=S)N[C@H](C)c1ccccc1)c1ccccc1` [Example 25] showed an MED of 10 µM.
With `S=C(NCCc1ccccc1)NCc1ccc2c(c1)OCO2` [Example 26] the MED was 3.3 µM.
In the case of `S=C(NCc1ccccc1)N1CCc2ccccc2C1` [Example 27], the MED was 10 µM.
In the case of `COc1ccccc1CNC(=S)NCCc1ccccc1` [Example 28], the MED was 1 to 3 µM.
`COc1ccccc1CCNC(=S)NCc1ccccc1` [Example 29] gave an MED of 3.3 µM.
With `FC(F)(F)c1ccc(CNC(=S)NCCc2ccccc2)cc1` [Example 30] the MED was 30 µM.
`S=C(NCCc1ccccc1)NCc1cccnc1` [Example 31] showed an MED of 1 µM.
`S=C(NCCc1ccccc1)NCC12CC3CC(CC(C3)C1)C2` [Example 32] was tested, and the MED was 10 µM.
`S=C(NCCc1ccccc1)NCc1nc2ccccc2[nH]1` [Example 33] gave an MED of 3 µM.
`S=C(NCCc1c[nH]c2ccccc12)Nc1ccccc1` [Example 34] gave an MED of 10 µM.
With `C[C@@H](NC(=S)N/N=C/c1ccccc1O)c1ccccc1` [Example 35] the MED was 3 µM.
With `C[C@@H](NC(=S)NN)c1ccccc1` [Example 36] the MED was 30 µM.
`COC(=O)c1ccccc1NC(=S)N(C)CCc1ccccc1` [Example 37] gave an MED of 3 µM.
`CN(CCc1ccccc1)C(=S)Nc1ccccc1C(=O)O` [Example 38] showed an MED of 0.1 µM.
With `O=C(O)c1ccccc1NC(=S)Nc1ccccc1` [Example 39] the MED was 1 µM.
Compound `Oc1ccc(CNC(=S)NCCc2ccccc2)cc1O` [Example 40, 1-(3,4-dihydroxybenzyl)-3-(2-phenylethyl)thiourea] has an MED of 1 µM.
Work on `Oc1cc2c(cc1O)CN(C(=S)NCCc1ccccc1)CC2` [Example 41, N-(2-phenylethyl)-3,4-dihydro-6,7-dihydroxyisoquinoline-2(1H)-carbothioamide] yielded an MED of 3 µM.
With `CN(Cc1ccc(O)c(O)c1)C(=S)NCCc1ccccc1` [Example 42, 1-(3,4-dihydroxybenzyl)-1-methyl-3-(2-phenylethyl)thiourea] the MED was 1 µM.
`Oc1ccc(CNC(=S)NCCc2ccccc2)cc1` [Example 43] showed an MED of 1 µM.
With `Oc1cccc(CNC(=S)NCCc2ccccc2)c1` [Example 44] the MED was 1 µM.
For `Oc1ccc(CNC(=S)NCc2ccccc2)cc1O` [Example 45], the MED was 3 µM.
Work on `Oc1ccc(CNC(=S)Nc2ccccc2)cc1O` [Example 46] yielded an MED of 3 µM.

Source: patent publication US20140004243A1, “SALTY TASTE ENHANCER” (AJINOMOTO CO., INC., priority 2011, published 2014)
